Experimental data reported in US20170007709A1, “GLYCOAMINO ACID AND USE THEREOF” (AJINOMOTO CO., INC., priority 2014, published 2017).

Legend:
[1] = Solubility evaluation in water at 25° C.; type: physicochemical; conditions: for solubility, amino acid-converted weight concentration / solubility, weight concentration: water, stirred for 2 days
Experimental: The concentration was measured by HPLC. […] Similarly, the solubility of DOPA and DOPA-Glc was measured. […] Furthermore, the solubility of DOPA and DOPA-Glc was similarly measured using water (0.5 ml) in a thermostatic tank at 25° C. […] Therefore, the samples were diluted, and solubility was measured by HPLC.

[2] = Dissolution rate evaluation in water; type: physicochemical; conditions: 25 ml stirring water, inside temperature 32° C., n=1
Experimental: Val, Ile, Leu or glycoamino acid corresponding thereto (Val-Glc, Ile-Glc, Leu-Glc) were each added to stirring water (25 ml, inside temperature 32° C.) in a hot-water bath at 35° C., and the dissolution rate was measured. As compared to Val, Ile and Leu, Val-Glc, Ile-Glc and Leu-Glc were dissolved 4-19 times faster in equal weight and 2-19 times faster in equimolar amount.

[3] = Animal evaluation: blood amino acid concentration after oral administration; type: in vivo; conditions: male SD rats fasted overnight
Experimental: Leu, Val, Ile and glycoamino acid corresponding thereto (Leu-Glc, Val-Glc, Ile-Glc) were each dissolved or suspended in distilled water to a given dose and orally administered to male 13-week-old SD rats (Japan Charles River) that was fasted overnight. Blood samples were collected from the rat tail vein before administration and 15 min, 30 min, 60 min, 90 min, 120 min after administration and partly 180 min and 300 min after administration. After separation into plasma, protein elimination and ultrafiltration with 15% sulfosalicylic acid solution was performed. The filtrate was mixed with 0.02 mmol/L hydrochloric acid at 1:1, analyzed by an amino acid analyzer (JEOL Ltd.), and blood amino acid concentration was determined.

pronase = assay: Enzyme evaluation: liberation of leucine by pronase; type: in vitro ADME; conditions: 37° C., 30 min later
Experimental: Leu-Glc (10 mg) was dissolved in water (1 ml), pronase (0.1% aqueous solution, 100 μl) was added, and the mixture was stirred in a hot-water bath at 37° C. The mixture was diluted 10-fold with 1% aqueous phosphoric acid solution, and analyzed by HPLC.
HPLC analysis conditions were as described below.
column: […] MG (4.6×250 mm, 5 μm) column temperature: 40° C. mobile phase: A: 100 mM KH2PO4, 5 mM sodium 1-octanesulfonate (pH 2.2) B: acetonitrile eluent: A/B=9/1 isocratic flow rate: 1.5 ml/min detection: photodiode array detector measurement wavelength 210 nm injection volume: 10 μL

Row | solubility, amino acid-converted weight concentration ([1]; HPLC) [g/100 g water] | solubility, weight concentration ([1]; HPLC) [g/100 g water] | dissolution rate, amino acid (XXX) ([2]; equal weight (Table 3)) | dissolution rate, amino acid (XXX) ([2]; equimolar quantity (Table 2)) | dissolution rate, glycoamino acid (XXX-Glc) ([2]; equal weight (Table 3)) [s] | dissolution rate, glycoamino acid (XXX-Glc) ([2]; equimolar quantity (Table 2)) [s] | SMILES | also measured
1 | 0.31 | 0.31 |  |  |  |  | N[C@@H](Cc1ccc(O)c(O)c1)C(=O)O [DOPA, 3,4-dihydroxy-L-phenylalanine, reference compound] | 
2 | >215 | >392 |  |  |  |  | N[C@@H](Cc1ccc(O)c(O)c1)C(=O)N[C@@H]1O[C@H](CO)[C@@H](O)[C@H](O)[C@H]1O [DOPA-Glc, N-(3,4-dihydroxy-L-phenylalanyl)-β-D-glucopyranosylamine] | solubility as compared to that of DOPA ([1]; water 0.5 ml, samples diluted, HPLC): not less than 690 fold; solubility as compared to the corresponding amino acid ([1]; water 1 ml): not less than 135 times; weight concentration at which still dissolved ([1]; water 1 ml): ≥ 93.8 g/100 g water
3 | 4.1 | 4.1 | (285 sec) | (280 sec) |  |  | CC[C@H](C)[C@H](N)C(=O)O [Ile, L-isoleucine, reference compound] | 
4 | 14.7 | 32.8 |  |  | 15 | 15 | CC[C@H](C)[C@H](N)C(=O)N[C@@H]1O[C@H](CO)[C@@H](O)[C@H](O)[C@H]1O [Ile-Glc, N-(L-isoleucyl)-β-D-glucopyranosylamine] | blood Ile concentration [3]: increased
5 | 2.4 | 2.4 | (330 sec) | (191 sec) |  |  | CC(C)C[C@H](N)C(=O)O [Leu, L-leucine, reference compound] | 
6 | 28.3 | 63 |  |  | 21 | 21 | CC(C)C[C@H](N)C(=O)N[C@@H]1O[C@H](CO)[C@@H](O)[C@H](O)[C@H]1O [Leu-Glc, N-(L-leucyl)-β-D-glucopyranosylamine] | blood Leu concentration [3]: increased; remaining Leu-Glc (pronase): almost disappeared
7 | 8.92 | 16.8 |  |  |  |  | N[C@@H](Cc1ccc(O)cc1)C(=O)N[C@@H]1O[C@H](CO)[C@@H](O)[C@H](O)[C@H]1O [Tyr-Glc, N-(L-tyrosyl)-β-D-glucopyranosylamine] | solubility as compared to the corresponding amino acid ([1]; water 1 ml): 178 times
8 | 5.8 | 5.8 | (139 sec) | (80 sec) |  |  | CC(C)[C@H](N)C(=O)O [Val, L-valine, reference compound] | 
9 | 14.1 | 33.5 |  |  | 33 | 33 | CC(C)[C@H](N)C(=O)N[C@@H]1O[C@H](CO)[C@@H](O)[C@H](O)[C@H]1O [Val-Glc, N-(L-valyl)-β-D-glucopyranosylamine] | blood Val concentration [3]: increased
